Source: US10071099B2, “Medicament for suppressing malignant tumor metastasis” (NATIONAL CEREBRAL AND CARDIOVASCULAR CENTER, priority 2014, dated 2018)

How the values were obtained:
mouse melanoma B16-F10 [1] = assay: Blood-borne lung metastasis model, mouse melanoma tail vein injection (LPS); type: in vivo; conditions: for LPS-induced lung metastasis of tumor cells (nodules): 30 mg/kg-day oral from 4 days before LPS, LPS 1 mg/kg tail vein 4 to 5 hours before B16-F10 injection, 14 days after tumor cell injection, C57BL6 mice
Procedure: Lung Metastasis Suppressing Effect of Medicament in Blood-Borne Metastasis Model Established by Injection of Mouse Melanoma to Mouse Tail Vein (LPS)
Eight-week-old male C57BL6 mice (purchased from Japan SLC, Inc.) were used. Lipopolysaccharide (LPS) in an amount of 1 mg/kg was injected to the tail vein of each mouse, and mouse melanoma B16-F10 was injected to the tail vein 4 to 5 hours later. At this time, mouse melanoma was injected into the tail vein on the different side from the tail vein to which LPS was injected. Mouse melanoma B16-F10 was purchased from ATCC, and cultured in DMEM (Life Technologies Corp.) containing 10% FCS under 5% CO2 at 37° C. The cells in a semiconfluent state were treated with EDTA-trypsin (a 0.01 to 0.125% solution) and then centrifuged. As an angiotensin type 2 receptor agonist, Compounds A to E were used. The cells were suspended in serum free DMEM so as to be 3×10^6 cells/mL for Compound A administration group, and 2×10^6 cells/mL for Compound B to E administration groups. The melanoma cell suspension ([…]) at a density of 3×10^5 cells for Compound A administration group or at a density of […] for Compound B to E administration groups was injected to the tail vein of the mice.
To the angiotensin type 2 receptor agonist group, a 0.5% carboxymethylcellulose aqueous solution (0.2 mg/mL) prepared so as to contain 30 mg/kg-day of the agent (each of Compounds A to E) was orally given from 4 days before the start of the LPS administration to the end of the experiment (14 days after the injection of melanoma cells) in a continuous manner. To the control group, LPS was not injected, and only a 0.5% carboxymethylcellulose aqueous solution not containing the agent (any of Compounds A to E) was orally given for the experiment.
In addition, for the purpose of comparison, an experiment in which LPS was not injected and Compound A was orally administered and an experiment in which LPS was injected and the 0.5% carboxymethylcellulose aqueous solution not containing the agent (any of Compounds A to E) was orally given were performed. […]

mouse melanoma B16-F10 [2] = assay: Blood-borne lung metastasis model, mouse melanoma tail vein injection (CDDP); type: in vivo
Procedure: Lung Metastasis Suppressing Effect of Medicament in Blood-Borne Metastasis Model Established by Injection of Mouse Melanoma to Mouse Tail Vein (CDDP)
Eight-week-old male C57BL6 mice (purchased from Japan SLC, Inc.) were used. Mouse melanoma B16-F10 was purchased from ATCC, and cultured in Dulbecco's Modified Eagle Medium (DMEM) (Life Technologies Corp.) containing 10% fetal calf serum (FCS) under 5% CO2 at 37° C. The cells in a semiconfluent state were treated with EDTA-trypsin (a 0.01 to 0.125% solution), centrifuged, and then suspended in serum free DMEM so as to be 3×10^6 cells/mL. The melanoma cell suspension (100 μL/mouse, 3×10^5 cells) was injected to the tail vein of the mice.
As pretreatment, 2.5 mg/kg of cisplatin (CDDP) was injected to the tail vein of the mice 2 days before the injection of the melanoma cells into the tail vein.
As an angiotensin type 2 receptor agonist, Compound A was used.
To the angiotensin type 2 receptor agonist group, a 0.5% carboxymethylcellulose aqueous solution prepared so as to contain 30 mg/kg of Compound A was orally given from 4 days before the start of the CDDP administration to the end of the experiment (14 days after the injection of melanoma cells) in a continuous manner.
To the control group, CDDP was not injected, and only a 0.5% carboxymethylcellulose aqueous solution not containing the agent was orally given for the experiment.
In addition, for the purpose of comparison, an experiment in which CDDP was not injected and Compound A was orally administered and an experiment in which CDDP was injected and the 0.5% carboxymethylcellulose aqueous solution not containing the agent (Compound A) was orally given were performed.
The number of animals in each group was n=5.
The lung metastasis of the tumor cells 14 days after the tumor cell injection was observed. […]

| SMILES | LPS-induced lung metastasis of tumor cells (nodules) (mouse melanoma B16-F10 [1]) | effect of cisplatin (CDDP) administration on lung metastasis of tumor cells (mouse melanoma B16-F10 [2]; CDDP 2.5 mg/kg tail vein 2 days before B16-F10 injection, 14 days after tumor cell injection) | lung metastasis of tumor cells without LPS administration (mouse melanoma B16-F10 [1]; 30 mg/kg-day oral, no LPS, 14 days after B16-F10 tail vein injection) | CDDP-induced exacerbation of the lung metastasis of tumor cells (nodules) (mouse melanoma B16-F10 [2]; 30 mg/kg oral from 4 days before CDDP, CDDP 2.5 mg/kg tail vein 2 days before B16-F10 injection, 14 days after tumor cell injection, C57BL6 mice) | lung metastasis of tumor cells without CDDP administration (mouse melanoma B16-F10 [2]; 30 mg/kg oral, no CDDP, 14 days after B16-F10 tail vein injection, C57BL6 mice) |
| --- | --- | --- | --- | --- | --- |
| CCN(CC)C(=O)[C@H](Cc1ccc(NC(=O)c2ccc(Cl)cc2N)cc1)C(=O)NS(=O)(=O)c1ccc2ccccc2c1 [Compound E, (2S)-2-{4-[(2-amino-4-chlorobenzoyl)amino]benzyl}-N,N-diethyl-N′-(2-naphthylsulfonyl)malonamide] | significantly suppressed the lung metastasis of tumor cells |  |  |  |  |
| N.N.[Cl][Pt][Cl] [cisplatin (CDDP), cisplatin, reference compound] |  | augmented the lung metastasis of tumor cells |  |  |  |
| CCN(CC)C(=O)[C@H](Cc1ccc(NC(=O)c2ccccc2)cc1)C(=O)NS(=O)(=O)c1ccc2ccccc2c1 [Compound A, (2S)-2-[4-(benzoylamino)benzyl]-N,N-diethyl-N′-(2-naphthylsulfonyl)malonamide] | significantly suppressed the lung metastasis of tumor cells |  | suppresses the lung metastasis of tumor cells | significantly suppressed the CDDP-induced exacerbation of the lung metastasis | capable of suppressing the lung metastasis of tumor cells |
